Assay results published in patent US20070073039A1, “Peptides that inhibit viral infections” (priority 2005, published 2007).
Read-outs that look alike come from different tables or passages of the source.

Assays:
[1] = Serum stability of L- and D-type peptides (10% FBS, 37° C., antiviral readout); format: in vitro ADME
Text: Peptides composed of L-amino acids are susceptible to proteolysis, which could shorten their half-life and, thus, their biological activity. To examine this possibility and to determine if specific peptide-viral protein interactions mediate antiviral activity, peptide 1 was synthesized using all D-amino acids, purified to >95% homogeneity, and its antiviral activity and serum stability were compared with a similarly pure preparation of the L-type version of peptide #1. Both L- and D-type peptides were diluted 1:100 in complete growth medium (10% FBS) and mixed with an equal volume of viral supernatant.
In addition, to compare the serum stability of the L- and D-type peptides, the diluted peptide was incubated at 37° C. for 1 hour, 2 hours and 4 hours before mixing with viral supernatant. The virus-peptide mixture was then used to infect Huh-7.5.1 cells (MOI=0.1). After adsorption for 4 hours at 37° C., the virus-peptide inoculum was removed. The cells were washed 2 times, overlaid with 120 μL fresh growth medium and incubated at 37° C. for 3 days. Cells were lysed and subjected to RNA analysis. The HCV RNA transcript level was measured by real time RT-QPCR and normalized to cellular GAPDH levels. […] Thus, in addition to low immunogenicity and possible oral bioavailability, peptides composed of D-amino acids have the potential therapeutic advantage of enhanced serum stability.

[2] = system: HCV; test: Median effective concentration (EC50) by intracellular HCV RNA RT-QPCR; format: cell-based, Hepatitis C virus (JFH-1); conditions: FIG. 12B-C; Huh-7.5.1 cells, MOI 0.1; 3 days; read-out: EC50 of the L- and D-forms of peptide 1
Description: (§1) To determine the median effective concentration (EC50) of peptide #1, peptide stock solution (3.6 mM in DMSO) was serially 2-fold diluted in DMSO. An aliquot of peptide from each dilution was then diluted 1:100 in complete growth medium and mixed with equal volume of virus supernatant. The virus-peptide mixture was then used to infect Huh-7.5.1 cells (MOI=0.1). After adsorption for 4 hours at 37° C., the virus-peptide inoculum was removed. The cells were washed 2 times, overlaid with 120 μL fresh growth medium and incubated at 37° C. for 3 days. Cells were lysed and subjected to RNA analysis. The HCV RNA transcript level was measured by real time RT-QPCR and normalized to cellular GAPDH levels. The inhibition of HCV infection was calculated by comparing the intracellular HCV RNA transcript between the peptide treatment and solvent control.
as §1, with “(EC50) of the L- and D-form” for “(EC50)”, “serially diluted” for “serially”, “2-fold” for “2-fold diluted”

[3] = system: Dengue-2; test: Dengue-2 infection of Vero cells, Intracellular FACS Assay; format: cell-based; conditions: 20 μM
Description: Intracellular FACS Assay: Vero cells were seeded for 24 h pre-infection in 6-well plates. Cells were exposed to Dengue-2 in the presence of increasing concentrations of peptide (or DMSO as control). Viruses and peptide were washed away 2 h post-infection. Cells were taken for intracellular staining 3 days post-infection. Cells were stained with appropriate isotype control, Dengue Env, Dengue capsid or tubulin antibodies. Cells were analyzed by FACS.

[4] = MTT cytotoxicity assay; format: cell-based; conditions: human, hepatocyte cell lines, read-out: LD50 (MTT cytotoxicity)
Description: Peptide cytotoxicity was measured by MTT cytotoxicity assay based on the protocol provided in the ATCC MTT assay kit (Cat #30-1010K). In brief, 5000-10,000 cells were seeded per well in a 96 well plate. Following overnight growth, 100 μL fresh medium plus 20 μL of 2-fold serially diluted peptide was added. Media without peptides was added to at least 3 wells as untreated controls. The cells were then incubated for 72 hours at 37° C., 5% CO2. After this incubation, 1/10 volume of MTT solution ([…] in PBS) was added to each well, and the cells were returned to the incubator. Two hours later, the medium was removed, 150 μL DMSO was added to dissolve the purple precipitate formazan, and the plate was shaken at 150 rpm for 10 minutes. Absorbance at 570 nm less background at 670 nm is a reliable measure of […]. Cytotoxicity (LD50) of individual peptides was defined as the peptide concentration that caused 50% cell death.

[5] = system: Dengue-2; test: Dengue-2 infection of Vero cells, Enzyme-linked Immunosorbent Assay; format: cell-based; conditions: 1.25 μM, 5 days
[6] = system: HCV; test: HCV focus reduction assay; format: cell-based, Hepatitis C virus (JFH-1)
Description: To identify peptides that display antiviral activity against HCV infection, the peptide library was screened by an HCV focus reduction assay. The peptides were constituted in 100% DMSO at a final concentration 10 mg/mL, and stored in −20° C. The peptide stock solution was diluted 1:200 to a final concentration approximately 20 μM in complete DMEM growth medium containing 50 focus forming units (ffu) of HCV. The virus-peptide mixture was transferred to Huh-7.5.1 cells at a density of 8000 cells per well in a 96-well plate. After adsorption for 4 hours at 37° C., the inoculum was removed. The cells were washed 2 times, overlaid with 120 μL fresh growth medium and incubated at 37° C. After 3 days of culture, the cells were fixed with paraformaldehyde and immunostained with antibody against HCV nonstructural protein NS5A. The numbers of HCV foci were counted under fluorescent microscopy and the result is expressed as percentage (%) of mock with no peptide treatment but containing solvent 0.5% DMSO.
To determine whether the antiviral activity of peptide 1 is dependent on its primary amino acid sequence, four derivative peptides from peptide 1 were synthesized to a purity >95%. The four derivatives having the same composition of amino acids included (1) the reversed the sequence of peptide 1 (also called retro-peptide); (2) scrambled hydrophobic amino acids; (3) scrambled hydrophilic amino acids; and (4) a derivative in which the aspartic acid residues (D) were replaced with proline residues (P). The antiviral activity of the peptides was examined by HCV focus reduction assay at three peptide concentrations: 18 μM, 6 μM and 2 μM, as described above.

[7] = system: Dengue-2; test: Dengue-2 infection of Vero cells, Enzyme-linked Immunosorbent Assay; format: cell-based; conditions: for Inhibition of Dengue Infection, α-Capsid 9A7 / Inhibition of Dengue Infection, α-DEN ENV: Vero cells, 5 days
Description: Enzyme-linked Immunosorbent Assay. Vero cells (80,000 cells/well/ml) were seeded for 24 h pre-infection in 24-well plates. Cells were exposed to Dengue-2 (derived from Vero cells) in the presence of increasing concentration of peptide (or DMSO as control). Viruses and peptide were not removed (cells were not washed) throughout the incubation. Infection was analyzed after 5 days using ELISA that measured the amounts of Dengue-2 capsid released in the supernatant of infected Vero cells.

[8] = system: HCV; test: Intracellular HCV RNA by real time RT-QPCR after infection of Huh-7.5.1 cells with and without peptide; format: cell-based, Hepatitis C virus (JFH-1)
Description: To accurately quantify the inhibitory effect of the selected peptides on HCV infection, intracellular HCV RNA was measured after infection by real time RT-QPCR with and without peptide treatment. The peptide stock solution was diluted 1:100 and mixed with equal volume of viral supernatant (propagated from day 18 virus preparation post transfection) to a final concentration approximately 20 μM. The virus with peptide or 0.5% DMSO solvent control was then used to infect Huh-7.5.1 cells at a multiplicity of infection (MOI) of 0.1. After an adsorption for 4 hours at 37° C., the inoculum was removed. The cells were washed 2 times, overlaid with 120 μL fresh growth medium and incubated at 37° C. At the indicated time points, total cellular RNA was isolated by the guanidine thiocyanate method. The HCV RNA transcript level was measured by real time RT-QPCR with the primers 5′—
normalized to cellular GAPDH levels.
To define the antiviral action of peptide #1 (SEQ ID NO:43), the antiviral activity of a series of N-terminal and C-terminal truncations of peptide 1 was analyzed using the focus reduction assay and by measuring the reduction in intracellular HCV RNA as described.

[9] = system: HCV; test: Binding/attachment/uptake of HCV RNA by Huh-7.5.1 cells; format: cell-based, Hepatitis C virus (JFH-1); conditions: 18 μM; 4 hours at 37° C.; cell-associated HCV RNA
Description: To define the mechanism of antiviral activity of peptide #1, its ability to prevent the binding/attachment/uptake by cells of viral RNA in an infectious inoculum cells was examined. Huh-7.5.1 cells were seeded at 8000 cells per well in a 96-well plate. Sixteen hours later, the cells were incubated with HCV at MOI=0.1 in the presence or absence of peptide at a concentration of 18 μM. After adsorption for 4 hours at 37° C., the virus-peptide inoculum was removed. The cells were washed 2 times, lysed and subjected to RNA analysis. The HCV RNA transcript level was measured by real time quantitative polymerase chain reaction (RT-QPCR) assay and normalized to cellular GAPDH levels. Inhibitory activity was quantified by comparing the amount of cell-associated HCV RNA in cells exposed to the virus-peptide inocula versus the virus-DMSO control.

[10] = Preliminary in vivo toxicity in mice
Description: As a preliminary measurement of the in vivo cytotoxicity of the peptides 1, 2 and 3 (see Table 4) a group of three mice (BALB/c mice, 7 weeks old, about 23 g) were each injected with 92 μg L-type peptide 1 ( ˜4 mg/kg) in 200 μL PBS (spun 14,000 rpm for 3 minutes before injection). In the control group, each of three mice was given 200 μL PBS containing 5% DMSO. The mice were monitored for acute toxicity during the first 3 hours after injection.
No change in appearance, activity or behavior was observed. The mice were then weighed on days 0, 3, 5, 7 and 10. Peptide-injected mice gained weight at the same rate as the controls.

CC[C@@H](C)[C@@H](NC(=O)[C@@H](CC(=O)O)NC(=O)[C@@H](CCCNC(=N)N)NC(=O)[C@@H](CC(C)C)NC(=O)[C@@H](Cc1c[nH]c2ccccc12)NC(=O)[C@H](N)CO)C(=O)N[C@H](Cc1c[nH]c2ccccc12)C(=O)N[C@H](CC(=O)O)C(=O)N[C@H](Cc1c[nH]c2ccccc12)C(=O)N[C@@H](C(=O)N[C@H](CS)C(=O)N[C@H](CCC(=O)O)C(=O)N[C@@H](C(=O)N[C@H](CC(C)C)C(=O)N[C@H](CO)C(=O)N[C@H](CC(=O)O)C(=O)N[C@H](Cc1ccccc1)C(=O)N[C@H](CCCCN)C(=O)O)C(C)C)[C@H](C)CC [D-2022 peptide]
Time entirely stable in 10% FBS at 37° C. [1]: at least 4 hours | EC50 [2]: ~1 µM | % of Dead cells PI ([3]; propidium iodide staining, Vero cells 3 days post-infection): 3.83% | CC50 at 72 h ([4]; with FBS): 36.8 µM | CC50 at 72 h ([4]; without FBS): 3.7 µM

SWLRDIWDWICEVL [^C-14mer]
Inhibition of Dengue Infection, α-DEN ENV [5]: 0% | Focus Reduction (72 h) ([6]; 72 h, working concentration 18.4-27.5 μM per peptide, Mock 51): 0 | Inhibition of Dengue viral infection as detected by FACS ([3]; FIG. 18): ~100% | Inhibition of Dengue Infection, α-Capsid 9A7 ([7]; 1.25 μM): 11.4% | Inhibition of Dengue Infection, α-Capsid 9A7 ([7]; 5 μM): 22.7% | Inhibition of Dengue Infection, α-DEN ENV ([7]; 5 μM): 29.65% | Inhibition of Dengue Infection, α-Capsid 9A7 ([7]; 20 μM): 98.3% | Inhibition of Dengue Infection, α-DEN ENV ([7]; 20 μM): 97.8% | Inhibition of Dengue viral infection as detected by ELISA ([7]; FIG. 17, 20 μM): ~100% | Fold Inhibition on HCV RNA (24 h) ([8]; 24 h, working concentration 18.4-27.5 μM per peptide): 20274.7 fold | Fold Inhibition on HCV RNA (72 h) ([8]; 72 h, working concentration 18.4-27.5 μM per peptide): 237172.4 fold

CTMLVCGDDLVVICESAG [Peptide 2]
Blocking of viral binding/attachment/uptake [9]: significantly blocks viral binding/attachment/uptake | Inhibition of HCV infection ([6]; cell culture model of HCV infection): strongly inhibit HCV infection | Fold Inhibition ([6]; inhibition of HCV infection, peptide approximately 20 μM, Huh-7.5.1 cells, 3 days): 100.0 fold | % of Mock ([6]; number of HCV foci as % of mock (0.5% DMSO), peptide approximately 20 μM, Huh-7.5.1 cells, 3 days): 1.0% | Fold inhibition of HCV infection ([6]; peptide library screen, approximately 20 μM): more than ten-fold | HCV RNA fold inhibition 24 h 25 μM ([8]; 24 h, 25 μM, Huh-7.5.1 cells, MOI 0.1, normalized to GAPDH): 86 fold | HCV RNA fold inhibition 72 h 25 μM ([8]; 72 h, 25 μM, Huh-7.5.1 cells, MOI 0.1, normalized to GAPDH): 40 fold | In vivo toxicity observation ([10]; 92 μg ( ˜4 mg/kg) in 200 μL PBS, acute toxicity first 3 hours, weight to day 10): Peptides 1, 2 and 3 are Nontoxic in C57BL/6 Mice | Weight(g) (d.0) ([10]; day 0, ˜4 mg/kg injected): 25.3 g | Weight(g) (d.3) ([10]; day 3): 25.6 g | Weight(g) (d.5) ([10]; day 5): 25.9 g | Weight(g) (d.7) ([10]; day 7): 25.9 g | Weight(g) (d.10) ([10]; day 10): 25.6 g
